Assay: storage stability of amorphous form (polymorphic form by x-ray powder diffraction)
Type: physicochemical
Conditions: amorphous form dried under vacuum at about 50° C. to 70° C.; ordinary stability conditions (75% RH at 40° C. or 60% RH at 25° C.); no change in polymorphic form by XRPD
Procedure: The obtained linagliptin may be dried under vacuum at about 50° C. to 70° C. for 6-12 hours to get amorphous form substantially free from residual solvents. Thus obtained amorphous linagliptin is stable under ordinary stability conditions at least for 3 months and doesn't change to crystalline form.
The stable amorphous form of linagliptin may be stored under nitrogen atmosphere and packed in a double polythene bag tied with a thread, keeping primary packing containing amorphous linagliptin inside a black color polyethylene bag containing oxygen busters and sealing it, placing above the double polyethylene bag inside a triple laminated bag optionally containing oxygen busters and sealing it, and placing the sealed triple laminated bag inside a closed high density polyethylene (HDPE) container and storing in controlled environment chamber at about 25° C. and/or 40° C.
The X-ray powder diffraction spectrum was measured under the following experimental conditions: • Instrument: X-Ray Diffractometer, D/Max-2200/PC Make: Rigaku, Japan. • X-Ray: Cu/40 kv/40 mA • Diverging: 10 • Scattering Slit: 10 • Receiving Slit: 0.15 mm • Monochromator RS: 0.8 mm • Counter: Scintillation Counter • Scan Mode: Continuous • Scan Speed: 3.0000/Min • Sampling Width: 0.020 • Scan Axes: Two Theta/Theta • Scan Range: 2.0000 to 40.0000 • Theta Offset: 0.0000

- stable under ordinary stability conditions, doesn't change to crystalline form: ≥ 3 months
SMILES: CC#CCn1c(N2CCC[C@@H](N)C2)nc2c1c(=O)n(Cc1nc(C)c3ccccc3n1)c(=O)n2C [amorphous linagliptin, 8-[(R)-3-aminopiperidin-1-yl]-7-(but-2-yn-1-yl)-3-methyl-1-[(4-methyl-quinazolin-2-yl)methyl]-3,7-dihydro-1H-purine-2,6-dione]

— patent US9879011B2, “Amorphous form of linagliptin and process for preparation thereof” (CADILA HEALTHCARE LIMITED, priority 2012, dated 2018)
